According to patent US20140178479A1, “Concentrated Felbamate Formulations for Parenteral Administration” (PEROSPHERE, INC., priority 2011, published 2014):

Legend:
[1] = supersaturated solution: remaining in solution after heating and cooling; format: physicochemical
Experimental: Felbamate was added at a concentration of up to 20 weight per volume percent to polyethylene glycol 300 and polyethylene glycol 400. Solutions were heated above 70° C. after which the felbamate dissolved.
Felbamate was added at a concentration of up to 10 weight per volume percent in 65 volume per volume percent polyethylene glycol 300, 20 volume per volume percent polyethylene glycol 400, and 15 volume per volume percent propylene glycol. In a separate experiment, felbamate was added at a concentration of up to 10 weight per volume percent in 65 volume per volume percent polyethylene glycol 300, 20 volume per volume percent polyethylene glycol 400, 10 volume per volume percent propylene glycol, and 5 volume per volume percent polyethylene glycol 600.
Solutions were heated above 70° C. after which the felbamate dissolved.
Fluorofelbamate was added at a concentration of 10 weight per volume percent to polyethylene glycol 300. Solutions were heated above approximately 80° C. after which the fluorofelbamate dissolved.

[2] = injection of supersaturated solution into 37° C. phosphate buffered saline; format: physicochemical
Experimental: A supersaturated 10 weight per volume percent felbamate solution in PEG 300 was injected into 37° C. phosphate buffered saline. […] Additional felbamate supersaturated solution at the same concentration was added 10 microliters at a time without forming solid particles up to at least 50 microliters.

CYP2C19 = CYP2C19 (Homo sapiens, UniProt P33261); conditions: cited from earlier work
[3] = cited from earlier work
[4] = cited from earlier work; remark: listed apart in the source
[5] = SEM imaging of precipitated microparticles; format: physicochemical
Experimental: Felbamate was dissolved in dimethyl sulfoxide to create a five weight per volume percent solution. The felbamate solution was introduced into one hundred times the volume of a one weight per volume percent polysorbate 20 aqueous solution stirred at 1,500 revolutions per minute using an overhead mixer equipped with an impeller blade. The resultant microparticles of felbamate were imaged using SEM. […] Under the same experimental conditions, Span 80 was substituted for polysorbate 20.
Felbamate was dissolved in glycerin heated above 120° C. to create a 5% weight per volume solution. The felbamate solution was introduced into one hundred times the volume of a one weight per volume percent polysorbate 20 aqueous solution stirred at 1,500 revolutions per minute using an overhead mixer equipped with an impeller blade. The resultant microparticles of felbamate were imaged using SEM.

Sequence of CYP2C19 (P33261 whole entry): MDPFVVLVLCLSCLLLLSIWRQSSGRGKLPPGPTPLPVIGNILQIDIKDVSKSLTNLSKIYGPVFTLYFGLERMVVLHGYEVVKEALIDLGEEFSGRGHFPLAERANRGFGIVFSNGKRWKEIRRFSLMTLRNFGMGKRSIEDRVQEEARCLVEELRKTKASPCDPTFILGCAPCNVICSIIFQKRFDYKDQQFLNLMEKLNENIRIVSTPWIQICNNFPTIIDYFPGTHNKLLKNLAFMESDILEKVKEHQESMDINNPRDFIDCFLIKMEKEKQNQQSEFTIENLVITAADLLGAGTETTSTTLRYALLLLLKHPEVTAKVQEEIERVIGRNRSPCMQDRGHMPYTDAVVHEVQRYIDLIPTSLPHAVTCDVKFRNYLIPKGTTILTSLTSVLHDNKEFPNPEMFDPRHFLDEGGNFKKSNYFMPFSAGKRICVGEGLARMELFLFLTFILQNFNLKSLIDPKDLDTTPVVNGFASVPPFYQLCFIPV

Row | Compound | solution state after heating or cooling ([1]; PEG 300 / PEG 400 sample heated or cooled to 40° C., 4° C., and −20° C. for 30 minutes, then returned to 25° C.) | concentration of samples that remained in solution ([1]; polyethylene glycol 300 and polyethylene glycol 400, heated above 70° C., cooled to room temperature approx. 25°) | time remained in solution ([1]; up to 10 w/v % in 65 v/v % PEG 300, 20 v/v % PEG 400, 10 v/v % propylene glycol, 5 v/v % PEG 600, approx. 25° C.) | time remained in solution ([1]; up to 10 w/v % in 65 v/v % PEG 300, 20 v/v % PEG 400, 15 v/v % propylene glycol, approx. 25° C.) | time remained in solution ([1]; up to approx. 12.5 weight per volume percent in polyethylene glycol 300 and polyethylene glycol 400, room temperature approx. 25°) | volume of additional supersaturated solution added without forming solid particles ([2]; 10 w/v % in PEG 300, added 10 microliters at a time to 37° C. phosphate buffered saline) | solid particles on injection ([2]; supersaturated 10 w/v % solution in PEG 300 injected into 37° C. phosphate buffered saline) | effect on CYP2C19 (CYP2C19) | solubility in water [3] | share of aplastic anemia cases that are fatal ([4]; chronic oral dosing) | aplastic anemia after a single administration ([4]; single administration) | particle size by SEM ([5]; glycerin / polysorbate 20 microparticles compared with native powder) | particle form ([5]; same conditions, Span 80 substituted for polysorbate 20) | time remained in solution ([1]; 10 w/v % in polyethylene glycol 300, heated above approx. 80° C., cooled to approx. 25°)
1 | NC(=O)OCC(COC(N)=O)c1ccccc1 [Felbamate] | remained in solution | ≤ 12.5 weight per volume percent | at least 1 day | at least 1 day | at least eight | at least 50 microliters | No solid particles were observed | inhibitor | less than one | 30% | has not been shown to develop | hundreds of microns | formed crystals, which are unsuitable for injection | –
2 | NC(=O)OCC(F)(COC(N)=O)c1ccccc1 [Fluorofelbamate] | – | – | – | – | – | – | – | – | less than one | – | – | – | – | at least 1 month
